≈ marks a conversion by molar mass, not a printed value. Entries after “also recorded” stand apart in the source; their conditions may differ. Read-outs that look alike come from different tables or passages of the source.

Holding throughout (assay): microbe, parasite or virus in culture
Test [1] deals with wild type S. epidermidis RP62A. Format: cell-based, Staphylococcus epidermidis. The following applies: for MIC: Sensitive strain (SPase without the resistance-conferring Pro).
Test [2] deals with lepB(P29S) S. aureus 8325. Format: cell-based, Staphylococcus aureus. The following applies: for MIC: Sensitive (genetically sensitized) strain.
Test [3] concerns lepB(P84L) E. coli MG1655. Format: cell-based, Escherichia coli.
Test [4] deals with lepB(P84L) P. aeruginosa PAO1. Format: cell-based, Pseudomonas aeruginosa.
Test [5] relates to spsB(S29P) S. epidermidis RP62A. Format: cell-based, Staphylococcus epidermidis.
Test [6] has as its system wild type S. aureus 8325. Format: cell-based, Staphylococcus aureus. The following applies: for MIC: Resistant strain (wild type).
Test [7] has as its system wild type E. coli MG1655. Format: cell-based, Escherichia coli.
For test [8], the system named is wild type P. aeruginosa PAO1. Format: cell-based, Pseudomonas aeruginosa.
The mark [9] stands for this setting: Staphylococcus epidermidis, read-out: MIC.
[10] abbreviates: Staphylococcus aureus, read-out: MIC.
The mark [11] stands for this setting: Escherichia coli, MG1655, Sensitive (genetically sensitized) strain, read-out: MIC.
The mark [12] stands for this setting: Pseudomonas aeruginosa, PAO1, Sensitive (genetically sensitized) strain, read-out: MIC.
Setting [13] is: Escherichia coli, MG1655, Resistant strain (wild type), read-out: MIC.
[14] abbreviates: Pseudomonas aeruginosa, PAO1, Resistant strain (wild type), read-out: MIC.
[15] abbreviates: Sensitive (genetically sensitized) strain.
Where [16] appears, read: Table 3, P3 position derivatives, unit not given.

As to `C[C@@H]1NC(=O)[C@@H](N(C)C(=O)CNC(=O)[C@@H](C)NC(=O)[C@@H](CO)N(C)C(=O)c2ccc(-c3ccccc3)cc2)c2ccc(O)c(c2)-c2cc(ccc2O)C[C@@H](C(=O)O)NC1=O` [Compound 8], in test [1], the activity in words entry is given as “retains some activity”. The MIC was 32 µg/mL (≈ 38.9 µM) in test [1] (setting [9]); more than 64 µg/mL in test [2] (setting [10]); more than 64 µg/mL in test [3] (setting [11]); more than 64 µg/mL in test [4] (setting [12]); more than 64 µg/mL in test [5] (setting [9]); more than 64 µg/mL in test [6] (setting [10]). The MIC in test [7] (setting [13]) and in test [8] (setting [14]) was more than 64 µg/mL in each case.
Turning to `CCc1ccc(-c2ccc(C(=O)N(C)[C@H](CO)C(=O)N[C@H](C)C(=O)NCC(=O)N(C)[C@@H]3C(=O)N[C@@H](C)C(=O)N[C@H](C(=O)O)Cc4ccc(O)c(c4)-c4cc3ccc4O)cc2)cc1` [Compound 9], the MIC is 64 µg/mL (≈ 75.2 µM) in test [1]; more than 64 µg/mL in test [2] (setting [10]); more than 64 µg/mL in test [3] (setting [15]); more than 64 µg/mL in test [4] (setting [12]); more than 64 µg/mL in test [5] (setting [9]); more than 64 µg/mL in test [6] (setting [10]). Further, the MIC in test [7] (setting [13]) and in test [8] (setting [14]) was more than 64 µg/mL in each case.
As to `CCc1ccc(-c2ccc(C(=O)N(C)[C@H](CO)C(=O)N[C@H](C)C(=O)NCC(=O)N(C)[C@@H]3C(=O)N[C@@H](C)C(=O)N[C@H](C(=O)O)Cc4ccc(O)c(c4)-c4cc3ccc4O)cc2)cc1` [Compound 10], the MIC was 8 µg/mL (≈ 9.4 µM) in test [1]; 64 µg/mL in test [2]; 16 µg/mL in test [3] (setting [15]); more than 64 µg/mL in test [4] (setting [15]); more than 64 µg/mL in test [5]; more than 64 µg/mL in test [6]. Moreover, the MIC in test [7] (Resistant strain (wild type)) and in test [8] (Resistant strain (wild type)) was more than 64 µg/mL throughout.
For `CCCCCCCCc1ccc(-c2ccc(C(=O)N(C)[C@H](CO)C(=O)N[C@H](C)C(=O)NCC(=O)N(C)[C@@H]3C(=O)N[C@@H](C)C(=O)N[C@H](C(=O)O)Cc4ccc(O)c(c4)-c4cc3ccc4O)cc2)cc1` [Compound 12], the MIC in test [1] (setting [9]) is 0.5 µg/mL (≈ 0.535 µM); in test [2] (setting [10]), 8 µg/mL; in test [3] (setting [11]) it was 1 µg/mL; in test [4] (setting [12]), more than 64 µg/mL; in test [5] (setting [9]), 32 µg/mL (≈ 34.2 µM); in test [6] (setting [10]) it was 64 µg/mL (≈ 68.4 µM). The MIC in test [7] (setting [13]) and in test [8] (setting [14]) was more than 64 µg/mL throughout. The activity in words result in test [5] is listed as “active”.
With `CCCCCCc1ccc(C(=O)N(C)[C@H](CO)C(=O)N[C@H](C)C(=O)NCC(=O)N(C)[C@@H]2C(=O)N[C@@H](C)C(=O)N[C@H](C(=O)O)Cc3ccc(O)c(c3)-c3cc2ccc3O)cc1` [Compound 13], the MIC in test [1] (setting [9]) is 1 µg/mL (≈ 1.2 µM); in test [2] (setting [10]), 8 µg/mL; in test [3] (setting [11]), 1 µg/mL; in test [4] (setting [12]), more than 64 µg/mL; in test [5] (setting [9]), 16 µg/mL (≈ 19.3 µM); in test [6] (setting [10]), 16 µg/mL (≈ 19.3 µM). Further, the MIC in test [7] (setting [13]) and in test [8] (setting [14]) was more than 64 µg/mL throughout.
With `CCCCCCCCc1ccc(C(=O)N(C)[C@H](CO)C(=O)N[C@H](C)C(=O)NCC(=O)N(C)[C@@H]2C(=O)N[C@@H](C)C(=O)N[C@H](C(=O)O)Cc3ccc(O)c(c3)-c3cc2ccc3O)cc1` [Compound 14], the MIC in test [1] (setting [9]) is 8 µg/mL (≈ 9.31 µM); in test [2] (setting [10]), 64 µg/mL; in test [3] (setting [11]), 32 µg/mL; in test [4] (setting [12]) it was more than 64 µg/mL; in test [5] (setting [9]), more than 64 µg/mL; in test [6] (setting [10]), more than 64 µg/mL. The MIC in test [7] (setting [13]) and in test [8] (setting [14]) was more than 64 µg/mL in each case.
As to `CCCCCCCCCCc1ccc(C(=O)N(C)[C@H](CO)C(=O)N[C@H](C)C(=O)NCC(=O)N(C)[C@@H]2C(=O)N[C@@H](C)C(=O)N[C@H](C(=O)O)Cc3ccc(O)c(c3)-c3cc2ccc3O)cc1` [Compound 15], the MIC is 1 µg/mL (≈ 1.13 µM) in test [1] (setting [9]); 8 µg/mL in test [2] (setting [10]); 8 µg/mL in test [3] (setting [11]); 64 µg/mL in test [4] (setting [12]); more than 64 µg/mL in test [5] (setting [9]); more than 64 µg/mL in test [6] (setting [10]). In addition, the MIC in test [7] (setting [13]) and in test [8] (setting [14]) was more than 64 µg/mL in each case. Also, in test [6], the activity in words result was “has activity; also recorded: gains activity”.
Regarding `CCCCCCCCCCCCCCCC(=O)N1CC(O)C[C@@H]1C(=O)N[C@H](C)C(=O)NCC(=O)N(C)[C@@H]1C(=O)N[C@@H](C)C(=O)N[C@H](C(=O)O)Cc2ccc(O)c(c2)-c2cc1ccc2O` (some centres unmarked) [Compound 19], the MIC in test [1] (setting [9]) was 4 µg/mL (≈ 4.48 µM); in test [2] (setting [10]) it was 4 µg/mL; in test [3] (setting [11]), more than 64 µg/mL; in test [4] (setting [12]) it was more than 64 µg/mL; in test [5] (setting [9]) it was 8 µg/mL (≈ 8.96 µM); in test [6] (setting [10]) it was more than 64 µg/mL. Besides, the MIC in test [7] (setting [13]) and in test [8] (setting [14]) was more than 64 µg/mL in each case.
As to `CCCCCCCCCCCCCCCC(=O)N(C)[C@H](CO)C(=O)N[C@H](C)C(=O)NCC(=O)N(C)[C@@H]1C(=O)NCC(=O)N[C@H](C(=O)O)Cc2ccc(O)c(c2)-c2cc1ccc2O` [Compound 26], the “fold loss of activity relative to arylomycin C16” value in test [1] is reported as 32 fold; in test [2], more than 16 fold; in test [3] it was 32 fold; in test [4], more than 16 fold. Further, the “minimal inhibitory concentration (MIC)” value in test [1] is given as 8; in test [2], more than 64; in test [3] it was 16; in test [4] it was more than 64.
Consider `CCCCCCCCCCCCCCCC(=O)N(C)[C@H](CO)C(=O)N[C@H](C)C(=O)NCC(=O)N(C)[C@@H]1C(=O)N[C@@H](CC)C(=O)N[C@H](C(=O)O)Cc2ccc(O)c(c2)-c2cc1ccc2O` [Compound 27], for which the “minimal inhibitory concentration (MIC)” value in test [1] is listed as 0.5; in test [2], 8; in test [3], 1; in test [4] it was 4.
Regarding `CCCCCCCCCCCCCCCC(=O)N(C)[C@H](CO)C(=O)N[C@H](C)C(=O)NCC(=O)N(C)[C@@H]1C(=O)N[C@@H](CCC)C(=O)N[C@H](C(=O)O)Cc2ccc(O)c(c2)-c2cc1ccc2O` [Compound 28], the “minimal inhibitory concentration (MIC)” value in test [1] (setting [16]) is 1; in test [2] (setting [16]) it was 8; in test [3] (setting [16]) it was 2; in test [4] (setting [16]), 8.
`CCCCCCCCCCCCCCCC(=O)N(C)[C@H](CO)C(=O)N[C@H](C)C(=O)NCC(=O)N(C)[C@@H]1C(=O)N[C@@H](CCCC)C(=O)N[C@H](C(=O)O)Cc2ccc(O)c(c2)-c2cc1ccc2O` [Compound 29]: the “minimal inhibitory concentration (MIC)” value was 4 in test [1], 16 in test [2], more than 128 in test [3] and more than 128 in test [4]. The “fold loss of activity relative to arylomycin C16” value in test [2] was determined as 32 fold.
Regarding `CCCCCCCCCCCCCCCC(=O)N(C)[C@H](CO)C(=O)N[C@H](C)C(=O)NCC(=O)N(C)[C@@H]1C(=O)N[C@@H](CCCCC)C(=O)N[C@H](C(=O)O)Cc2ccc(O)c(c2)-c2cc1ccc2O` [Compound 30], the “minimal inhibitory concentration (MIC)” value in test [1] (setting [16]) was 4; in test [2] (setting [16]) it was 16; in test [3] (setting [16]), more than 128; in test [4] (setting [16]) it was more than 128. The “fold loss of activity relative to arylomycin C16” value in test [2] was 32 fold.
As to `CCCCCCCCCCCCCCCC(=O)N(C)[C@H](CO)C(=O)N[C@H](C)C(=O)NCC(=O)N(C)[C@@H]1C(=O)NC(CC(F)(F)F)C(=O)N[C@H](C(=O)O)Cc2ccc(O)c(c2)-c2cc1ccc2O` (some centres unmarked) [Compound 33], the “fold loss of activity relative to arylomycin C16” value in test [1] is 32 fold; in test [2], “at least 16 fold”; in test [3] it was 8 fold; in test [4] it was “at least 16 fold”. For the same compound, the “minimal inhibitory concentration (MIC)” value is recorded as 8 in test [1] (setting [16]), more than 64 in test [2] (setting [16]), 16 in test [3] (setting [16]) and more than 64 in test [4] (setting [16]).
On to `CCCCCCCCCCCCCCCC(=O)N(C)[C@H](CO)C(=O)N[C@H](C)C(=O)NCC(=O)N(C)[C@@H]1C(=O)N[C@@H](C(C)C)C(=O)N[C@H](C(=O)O)Cc2ccc(O)c(c2)-c2cc1ccc2O` [Compound 34], for which the “minimal inhibitory concentration (MIC)” value in test [1] (setting [16]) turned out to be 4; in test [2] (setting [16]), 32; in test [3] (setting [16]), 4; in test [4] (setting [16]) it was 16. Besides, the activity in words result in test [3] is on record as “maintained activity”. The “fold loss of activity relative to arylomycin C16” value in test [4] turned out to be 4 fold.
Regarding `CCCCCCCCCCCCCCCC(=O)N(C)[C@H](CO)C(=O)N[C@H](C)C(=O)NCC(=O)N(C)[C@@H]1C(=O)N[C@@H](CC(C)C)C(=O)N[C@H](C(=O)O)Cc2ccc(O)c(c2)-c2cc1ccc2O` [Compound 35], the “minimal inhibitory concentration (MIC)” value is 2 in test [1], 32 in test [2], 4 in test [3] and more than 64 in test [4]. Also, in test [3], the activity in words result is recorded as “maintained activity”. Further, in test [4], the “fold loss of activity relative to arylomycin C16” value is given as more than 16 fold.

The record behind these values is patent US20160297851A1, “BROAD SPECTRUM […]” (priority 2012, published 2016).
